What was measured:
[1] = tested on: Lactobacillus rhamnosus Strain PL60; assay: Antibiotic resistance (diameter of growth inhibition); assay type: cell-based; conditions: antibiotic against Lactobacillus rhamnosus Strain PL60
[2] = tested on: overweight people; conditions: cited from earlier work
[3] = tested on: CLA production from LA; conditions: reported strains, for comparison; cited from earlier work

Row | Compound | Diameter(mm) of growth inhibition [1] [mm] | also measured
1 | CN[C@H](CC(C)C)C(=O)N[C@H]1C(=O)N[C@@H](CC(N)=O)C(=O)N[C@H]2C(=O)N[C@H]3C(=O)N[C@H](C(=O)N[C@H](C(=O)O)c4cc(O)cc(O)c4-c4cc3ccc4O)[C@H](O)c3ccc(c(Cl)c3)Oc3cc2cc(c3O[C@@H]2O[C@H](CO)[C@@H](O)[C@H](O)[C@H]2O[C@H]2C[C@](C)(N)[C@H](O)[C@H](C)O2)Oc2ccc(cc2Cl)[C@H]1O [Vancomycin] | 6 | 
2 | Trimethpprime/sulfamethoxasole | 6 | 
3 | CCC[C@@H]1C[C@@H](C(=O)N[C@@H]([C@H]2O[C@H](SC)[C@H](O)[C@@H](O)[C@H]2O)[C@H](C)Cl)N(C)C1 [Clindamycin] | 26 | 
4 | CN(C)[C@@H]1C(O)=C(C(N)=O)C(=O)[C@@]2(O)C(O)=C3C(=O)c4c(O)cccc4[C@@](C)(O)[C@H]3C[C@@H]12 [Tetracycline] | 29 | 
5 | Gentamicin | 10 | 
6 | CCN1CCN(C(=O)N[C@@H](C(=O)N[C@@H]2C(=O)N3C(C(=O)O)=C(CSc4nnnn4C)CS[C@H]23)c2ccc(O)cc2)C(=O)C1=O [Cefoperazone] | 22 | 
7 | Penicillin | 25 | 
8 | CC[C@H]1OC(=O)[C@H](C)[C@@H](O[C@H]2C[C@@](C)(OC)[C@@H](O)[C@H](C)O2)[C@H](C)[C@@H](O[C@@H]2O[C@H](C)C[C@H](N(C)C)[C@H]2O)[C@](C)(O)C[C@@H](C)C(=O)[C@H](C)[C@@H](O)[C@]1(C)O [Erythromycin] | 28 | 
9 | Cc1onc(-c2ccccc2)c1C(=O)N[C@@H]1C(=O)N2[C@@H]1SC(C)(C)[C@@H]2C(=O)O [Oxacillin] | 8 | 
10 | CO[C@H]1/C=C/O[C@@]2(C)Oc3c(C)c(O)c4c(O)c(c(/C=N/N5CCN(C)CC5)c(O)c4c3C2=O)NC(=O)/C(C)=C\C=C\[C@H](C)[C@H](O)[C@@H](C)[C@@H](O)[C@@H](C)[C@H](OC(C)=O)[C@@H]1C [Rifampin] | 24 | 
11 | [H]/N=C(/N)N[C@H]1[C@H](O)[C@@H](O)[C@H](O[C@@H]2O[C@@H](C)[C@](O)(C=O)[C@H]2O[C@@H]2O[C@@H](CO)[C@H](O)[C@@H](O)[C@@H]2NC)[C@@H](N/C(N)=N\[H])[C@@H]1O [Streptomycin] | 11 | 
12 | CC1(C)S[C@@H]2[C@H](NC(=O)C(C(=O)O)c3ccccc3)C(=O)N2[C@H]1C(=O)O (stereo partly shown) [Carbenicillin] | 25 | 
13 | O=C(N[C@H](CO)[C@H](O)c1ccc([N+](=O)[O-])cc1)C(Cl)Cl [Chloramphenicol] | 24 | 
14 | conjugated linoleic acid [CLA] |  | weight loss ([2]; 180 overweight people, administered for one year): 4-10%; side effects ([2]; in vivo): without side effects
15 | CC(=O)OCC1=C(C(=O)O)N2C(=O)[C@@H](NC(=O)Cc3cccs3)[C@H]2SC1 [Cephalothin] | 20 | 
16 | CC1(C)S[C@@H]2[C@H](NC(=O)[C@H](N)c3ccccc3)C(=O)N2[C@H]1C(=O)O [Ampicillin] | 21 | 
17 | CCN1CCN(C(=O)N[C@@H](C(=O)N[C@@H]2C(=O)N3[C@@H]2SC(C)(C)[C@@H]3C(=O)O)c2ccccc2)C(=O)C1=O [Piperacilin] | 30 | 
18 | Lactobacillus reuteri |  | yield of t10c12 CLA [3]: 30 ppm

— patent publication US20080267932A1, “Lactobacillus Rhamnosus with Body-Fat Reducing Activity and the Foods Containing Them” (priority 2004, published 2008)
